Assays:
[1] = Long-term stability of unoprostone in polypropylene bottles at 25° C., 40% relative humidity; type: physicochemical; conditions: PP bottle
Experimental: (§1) 0.15 wt % unoprostone isopropyl ester (a typical prostaglandin analogue) solution in an isotonic solution containing mannitol and edetate disodium is prepared. The solution also contains 0.015 wt % benzalkonium chloride as a preservative. The solution is placed in a polypropylene bottle and a polyethylene bottle, which bottles have 7.5 ml void volume, and 5 ml of the solution is placed in each bottle. The bottles have air-tight caps. The polypropylene bottle is molded from REXENE PP23M2 polypropylene and the polyethylene bottle is produced from ALATHON 2025 […] polyethylene (LDPE), which is available from DuPont. The bottles are placed in controlled environment at 40° C. and ambient humidity, and the concentration of unoprostone is periodically measured using HPLC.
The unoprostone solution is placed in the polypropylene bottles, as described in Example 1, and placed in storage at 25° C. with 40% relative humidity. The stability over time of unoprostone in the polypropylene bottles is measured.

[2] = Percent unoprostone isopropyl absorbed by bottle (PP vs LDPE) at three storage temperatures; type: physicochemical
Experimental: as §1
Example 1 is repeated except that three different temperatures are used to store the samples. As put forth in Table 3, the percent unoprostone isopropyl absorbed by polypropylene is much lower than LDPE. This is particularly significant in that the lower absorption at higher temperatures enables the preparation of the present invention to meet current FDA stability requirements without refrigeration.

In the case of `CCCCCCCC(=O)CC[C@@H]1[C@@H](C/C=C\CCCC(=O)OC(C)C)[C@@H](O)C[C@H]1O` [Unoprostone, unoprostone isopropyl ester], the “% Unoprostone Isopropyl (Active)” value ([1]; 3 mo.) is reported as 101.3%, the “% Unoprostone Isopropyl (Active)” value ([1]; 6 mo.) is reported as 101.3% and the “% Unoprostone Isopropyl (Active)” value ([1]; 9 mo.) is reported as 101.3%. The “% Unoprostone Isopropyl (Active)” value ([1]; 18 mo.) was 101.3%, the “% Unoprostone Isopropyl (Active)” value ([1]; Initial) was 101.3% and the “degradation in concentration over time” value ([1]; over eighteen months) was “no measurable degradation”. For the same molecule, the “% Unoprostone Absorbed” value ([2]; LDPE bottle, 12 mo. at 5° C.) was 3.11%, the “% Unoprostone Absorbed” value ([2]; LDPE bottle, 12 mo. at 25° C.) was 4.76% and the “% Unoprostone Absorbed” value ([2]; LDPE bottle, 12 mo. at 30° C.) was 5.70%. For the same molecule, the “% Unoprostone Absorbed” value ([2]; PP bottle, 12 mo. at 5° C.) was 0.00%, the “% Unoprostone Absorbed” value ([2]; PP bottle, 12 mo. at 25° C.) was 0.98% and the “% Unoprostone Absorbed” value ([2]; PP bottle, 12 mo. at 30° C.) was 1.98%.

From US20020058049A1, “Stable ophthalmic preparation” (priority 2000, published 2002)
